# Experimental data published in PMC11706957 (Scientific Reports, 2025).
# Where “and” joins values, the source holds several entries; their conditions need not be identical. Identical values can stand only once.
# Legend:
# DYRK1B [1] = target: T1, DYRK1B (Homo sapiens, UniProt Q9Y463); test: Lantha (TR-FRET) kinase binding assay
# T1 construct: purchased ThermoFisher Scientific
# Procedure: Kinase binding activity was performed as described in[23]. Briefly, a 12-points dilution series of the compounds was prepared in DMSO and further diluted 1:33 in assay buffer A (50 mM HEPES (Sigma-Aldrich) pH 7.5, 10 mM MgCl2 (Sigma-Aldrich) 1 mM EGTA (Sigma-Aldrich) and 0.01% BRIJ-35 (ThermoFisher Scientific, Waltham, MA, USA). The GST tagged kinases, antibodies and tracer were purchased from ThermoFisher Scientific. DYRK1A and DYRK1B were each mixed with rabbit anti GST Europium tagged antibody in assay buffer A at concentrations of 15 nM kinase and 6 nM antibodies. Tracer 236 was diluted to 90 nM (DYRK1A) or 30 nM (DYRK1B) in assay buffer A. Finally, the kinase-antibody solution, compound solution and tracer solution were mixed together 1:1:1 (5µL each) in white, non-binding, round bottom 384 well microplates (Corning Inc, Kennebunk, ME, USA) mixed at 1000 rpm for 1 min and incubated in the dark at RT in humid atmosphere for 1 h. Fluorescence measurements were taken using a EnVision 2104 Multilabel reader (PerkinElmer, Shelton, CT, USA), excitation wavelength was set to 340 nm and emission was read at both 615 nm (8.5 nm bandwidth) and 665 nm (7.5 nm bandwidth) over 200ms with a 100ms delay between excitation and emission measurements. Emission ratio signals (EM) were calculated as the ratio between the 665 nm signal and the 615 nm signal. […]
# DYRK1B [2] = target: T1, DYRK1B; parameters: method as in Dirice et al. 2016; settings: reference activity value, ref Dirice et al. 2016; cited from earlier work
# RIN-M5F cells [3] = test: Cell cycle distribution (PI staining, flow cytometry); type: cell-based, rat
# Procedure: (§1) Rat beta cells RIN-M5F (purchased from ATCC, Manassas, VA, USA, product code ATCC-CRL-11605, passage number below 40 for all experiments presented in this manuscript) were cultured in RPMI-1640 (cat# R5886, Sigma-Aldrich, Saint Louis, MO, USA) supplemented with 10% FBS (Biowest, Nauillé, France), 2 mM L-glutamine (Biowest), 1 mM sodium pyruvate (Merck, Darmstadt, Germany) and 1x Penicillin-Streptomycin (Sigma-Aldrich) according to manufacturer’s instructions. Cells were seeded 3 days before the start of each experiment to allow full attachment. In experiments analysing the effects of cytokines, cells were treated with 20 ng/ml human IL-1β and 20 ng/ml rat IFNγ (Peprotech, Rocky Hill, NJ, USA) for a given time as indicated. Mycoplasma was tested as negative using MycoAlert® Mycoplasma Kit (Lonza, Basel, Switzerland).
# RIN-M5F cells were seeded in 6-well plates, 6 × 10^5 cells/well. […] After stimulation, the cells were washed with phosphate buffered saline (PBS) and trypsinated for 5 min at 37 °C, and fixed in ice-cold ethanol (70%) at 4 °C until analysis. The cells were stained by FxCycle™ PI/RNase Staining Solution kit (Invitrogen) according to manufacturer’s instructions and analysed by flow cytometry (CytoFLEX, Beckman Coulter). The percentages of cells in G1, S1 and G2/M was determined using the CytExpert software.
# phospho-p27^kip1 (Ser10) = test: Western blot of phosphorylated p27KIP; type: cell-based, rat; settings: 48 h, no cytokines
# Procedure: (§2) RIN-M5F cells were seeded in 6-well plates, 6 × 10^5 cells/well. […] After centrifugation (16.9 RCF, 15 min at 4 °C) the samples were directly diluted in NuPAGE™ LDS Sample Buffer (4X, Invitrogen) supplemented with NuPAGE™ Sample Reducing Agent (10X, Invitrogen), boiled at 95 °C for 5min and loaded on gel (NuPAGE™ 4–12%, Bis-Tris, Invitrogen). Protein transfer to PVDF membrane was performed by the iBlot™ dry blotting system (Invitrogen) according to manufacturer’s instructions. The membrane was blocked using SuperBlock™ Blocking Buffer (Thermo Fisher Scientific) and subsequently cut in half around 60 kDA, the top half was incubated with primary antibodies for phospho-dyrk1a/b (Tyr321, Tyr273) (1:500, Invitrogen, ref: PA5-64574), while the bottom half was incubated with phospho-p27^kip1 (Ser10) (1:200, Invitrogen, ref:34-6300) over night at 4 °C. After washing, the membrane was incubated with Alexa488-conjugated secondary antibody (1:5000, goat anti-rabbit, Invitrogen) for 2 h and imaged with a PharoxFX imager (Bio-Rad, Hercules, CA, USA). […] Protein quantification was performed with ImageJ (National Institutes of Health, Bethesda MD, USA), using the gel analysis tool to get the integrated pixel intensity for each band.
# RIN-M5F cells [4] = test: Cell viability (MTS, CellTiter 96 AQueous One) in cytokine-treated cells; type: cell-based, rat
# Procedure: as §1
# RIN-M5F cells were cultured in 96-well plates, 2 × 10^4 cells/well. […] Control wells with RPMI-1640 alone or supplemented with DMSO (Sigma-Aldrich, final concentration 10%) were used to estimate absorbance at 100% or 0% viability, respectively. […] The cells were thereafter incubated for an additional 72 h, and cell viability was measured by CellTiter 96®AQueous One Solution Assay (Promega, Madison, WI, USA) according to the manufacturer’s instructions. Absorbance at 490 nm was measured using a Spark® multimode microplate reader (Tecan, Männedorf, Switzerland). […]
# [5] = system: phospho-dyrk1a/b (Tyr321, Tyr273); test: Western blot of phosphorylated DYRK1A/B; type: cell-based, rat; settings: 48 h, no cytokines
# Procedure: as §2
# DYRK3 = target: T2, DYRK3 (Homo sapiens, UniProt O43781); test: Kinase activity assay (33P-ATP radioactive filter binding); type: biochemical; settings: duplicate 10-point concentration curve, mean ± SD
# T2 sequence (O43781 1-588): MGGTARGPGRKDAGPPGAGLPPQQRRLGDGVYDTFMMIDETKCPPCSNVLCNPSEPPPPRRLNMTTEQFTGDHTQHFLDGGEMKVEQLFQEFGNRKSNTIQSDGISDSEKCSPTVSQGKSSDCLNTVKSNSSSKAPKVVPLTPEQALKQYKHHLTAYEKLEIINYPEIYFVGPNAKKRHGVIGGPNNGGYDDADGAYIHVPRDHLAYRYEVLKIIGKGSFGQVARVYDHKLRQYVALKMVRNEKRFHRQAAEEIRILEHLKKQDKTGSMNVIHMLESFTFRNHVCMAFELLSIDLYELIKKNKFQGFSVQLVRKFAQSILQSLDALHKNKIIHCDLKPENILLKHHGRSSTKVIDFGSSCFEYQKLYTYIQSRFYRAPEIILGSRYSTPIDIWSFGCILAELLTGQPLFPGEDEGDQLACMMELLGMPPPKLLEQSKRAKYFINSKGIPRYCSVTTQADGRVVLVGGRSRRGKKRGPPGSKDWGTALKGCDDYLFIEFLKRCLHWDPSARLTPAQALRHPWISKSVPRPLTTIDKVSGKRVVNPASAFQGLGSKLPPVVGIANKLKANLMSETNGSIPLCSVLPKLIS
# Procedure: (§3) Each kinase was assayed using a duplicate 10-point concentration curve.
# DYRK2 = target: T3, DYRK2 (Homo sapiens, UniProt Q92630); test: as above; type: biochemical; settings: duplicate 10-point concentration curve, mean ± SD
# T3 sequence (Q92630 1-601): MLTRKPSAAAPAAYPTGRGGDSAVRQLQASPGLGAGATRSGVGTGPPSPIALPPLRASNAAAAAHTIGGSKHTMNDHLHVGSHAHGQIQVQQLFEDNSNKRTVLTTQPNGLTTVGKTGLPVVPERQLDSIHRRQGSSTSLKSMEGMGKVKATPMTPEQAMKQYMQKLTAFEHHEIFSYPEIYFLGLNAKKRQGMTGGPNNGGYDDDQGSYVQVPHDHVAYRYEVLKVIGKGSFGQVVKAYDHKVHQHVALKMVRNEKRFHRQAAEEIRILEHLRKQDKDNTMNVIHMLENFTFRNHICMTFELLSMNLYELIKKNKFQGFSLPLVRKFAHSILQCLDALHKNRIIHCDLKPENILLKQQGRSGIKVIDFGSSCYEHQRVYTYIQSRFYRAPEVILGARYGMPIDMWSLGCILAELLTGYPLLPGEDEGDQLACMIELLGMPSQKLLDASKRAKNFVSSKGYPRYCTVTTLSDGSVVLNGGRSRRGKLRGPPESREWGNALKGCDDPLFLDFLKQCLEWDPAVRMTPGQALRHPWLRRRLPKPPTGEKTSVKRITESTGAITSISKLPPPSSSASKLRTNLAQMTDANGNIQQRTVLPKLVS
# Procedure: as §3
# RIN-M5F cells [6] = test: EdU incorporation (flow cytometry); type: cell-based, rat; settings: for Average increase of EdU + labelling: versus untreated
# Procedure: as §1
# RIN-M5F cells were seeded into 6 well plates, 6 × 10^5 cells per well. […] Subsequently, the cells were stained with 10 µM Click-iT EdU (Invitrogen, Waltham, MA, USA) for 2 h, and analysed by flow cytometry (CytoFLEX, Beckman Coulter, Brea, CA, USA) according to the manufacturer’s instructions. EdU incorporation was analysed using the CytExpert software.
# 48 cell lines = system: 48 cell lines; parameters: method as in PMID 31647655; settings: cited from earlier work
# HepG2 cells = test: EdU incorporation in HepG2 cells; type: cell-based; settings: 10 µM BfC versus untreated
# Text: Supplementary Figure S2. Redocking of harmine in DYRK1A. The interactions between the compounds and the kinase hinge are identical (red circles) in both calculated and experimental model. […]
# compounds are shown as cartoon, with blue for nitrogen atoms, white for hydrogen, red for oxygen, purple for iodine and either orange (experimental) or green (docked) for carbon atoms. The protein active site is shown as a grey surface and important residues are shown as wire, dashed line represent […]
# µM). Open bars: EdU negative cells. Closed bars: EdU positive cells. Closed circles: Untreated cells. […]
# RIN-M5F cells [7] = test: Caspase 3/7 activity (Caspase-Glo); type: cell-based, rat
# Procedure: as §1
# RIN-M5F cells were cultured in 96-well plates, 2 × 10^4 cells/well. […] Caspase 3/7 activity was measured by Caspase-Glo (Promega) according to the manufacturer’s instructions. Each experiment was performed in triplicates.
# [8] = 20 µM, cells treated with cytokines
# T1 sequence (Q9Y463 whole entry): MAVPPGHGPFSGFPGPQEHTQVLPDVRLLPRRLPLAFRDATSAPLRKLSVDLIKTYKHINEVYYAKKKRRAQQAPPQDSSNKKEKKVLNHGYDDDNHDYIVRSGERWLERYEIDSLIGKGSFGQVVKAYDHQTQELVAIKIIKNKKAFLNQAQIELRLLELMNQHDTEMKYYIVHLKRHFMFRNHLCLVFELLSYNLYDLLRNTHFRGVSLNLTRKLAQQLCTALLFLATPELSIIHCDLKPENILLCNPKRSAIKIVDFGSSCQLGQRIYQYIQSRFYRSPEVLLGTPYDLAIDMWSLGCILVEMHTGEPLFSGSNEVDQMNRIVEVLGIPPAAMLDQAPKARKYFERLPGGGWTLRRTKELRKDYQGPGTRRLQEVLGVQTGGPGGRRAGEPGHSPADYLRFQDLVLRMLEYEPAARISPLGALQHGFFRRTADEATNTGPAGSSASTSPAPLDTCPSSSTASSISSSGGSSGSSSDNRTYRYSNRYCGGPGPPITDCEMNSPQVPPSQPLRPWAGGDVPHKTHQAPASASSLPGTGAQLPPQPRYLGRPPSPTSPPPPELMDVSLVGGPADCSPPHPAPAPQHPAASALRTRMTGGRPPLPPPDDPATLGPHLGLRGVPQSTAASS
structure (smiles),measurement,setting,value
"Nc1ncnc2c1c(I)cn2[C@@H]1O[C@H](CO)[C@@H](O)[C@H]1O [5IT, reference compound]",Kd,"DYRK1B [1]; lanthaScreen, 95% confidence interval in bracket",2.4 nM
same,IC50,DYRK1B [2],10 nM
"COc1cc2c(-c3cnc(-c4ccc[nH]4)o3)c[nH]c2cc1Br [BfC, breitfussin C]",Change of cells in G0/G1 phase,"RIN-M5F cells [3]; 10 µM, without cytokines",significantly decreased
same,Change of cells in S and G2/M phase,"RIN-M5F cells [3]; 10 µM, without cytokines",increased
same,Number of cells in G0/G1,"RIN-M5F cells [3]; 20 µM, 48 h, without cytokines, control 76.9 ± 0.6%",66.6 ± 1.3%
same,Change of cells in S and G2/M phase,RIN-M5F cells [3]; [8],increased
same,Change of number of cells in G0/G1,RIN-M5F cells [3]; [8],significantly decreased
same,Change of cells in S and G2/M phase,"RIN-M5F cells [3]; 20 µM, without cytokines",increased
same,Decrease of expression of p-p27^KIP compared to control,phospho-p27^kip1 (Ser10); 10 µM,23%
same,Decrease of expression of p-p27^KIP compared to control,phospho-p27^kip1 (Ser10); 20 µM,42%
same,Protective effect against cytokine-induced cell death at higher concentrations,"RIN-M5F cells [4]; concentrations above 10–20 µM (up to 40 µM), with cytokines",lost
same,Concentration range of effective protection against cytokine-induced cell death,RIN-M5F cells [4]; dose-response 1.25-40 µM with cytokines,10 to 20 µM
same,Decrease of expression of p-DYRK1A/B compared to control,[5]; 10 µM,approximately 50%
same,Decrease of expression of p-DYRK1A/B compared to control,[5]; 20 µM,~62%
same,IC50,DYRK3,4400 ± 800 nM
same,IC50,DYRK2,1400 ± 500 nM
same,EdU + labelling rate,"RIN-M5F cells [6]; 10 µM pretreatment, cytokine treated cells, cytokines alone 7.7 ± 0.8%",8.8 ± 0.8%
same,Average increase of EdU + labelling,"RIN-M5F cells [6]; 10 µM, without cytokines",12.5%
same,EdU + labelling rate,"RIN-M5F cells [6]; 10 µM, without cytokines, untreated 15.2 ± […]",17.1 ± 0.9%
same,EdU + labelling rate,"RIN-M5F cells [6]; 20 µM pretreatment, cytokine treated cells, cytokines alone 7.7 ± 0.8%",11.0 ± 1.1%
same,Average increase of EdU + labelling,"RIN-M5F cells [6]; 20 µM, without cytokines",21.1%
same,EdU + labelling rate,"RIN-M5F cells [6]; 20 µM, without cytokines, untreated 15.2 ± […]",18.4 ± 1.5%
same,Kd,"DYRK1B [1]; TR-FRET, approximate because of compound autofluorescence",~9000 nM and 9000 nM
same,Concentration at which cytotoxic to 48 cell lines,48 cell lines,≤ 10 µM
same,EdU incorporation in HepG2 cells,HepG2 cells,decreased
same,Caspase 3/7 activity compared to control,"RIN-M5F cells [7]; 10 µM pretreatment 24 h before cytokines, cytokines alone 199%",210 ± 15%
same,Caspase 3/7 activity compared to control,"RIN-M5F cells [7]; 10 µM, 48 h, without cytokines",127 ± 2%
same,Caspase 3/7 activity compared to control,"RIN-M5F cells [7]; 20 µM pretreatment 24 h before cytokines, cytokines alone 199%",241 ± 20%
same,Caspase 3/7 activity compared to control,"RIN-M5F cells [7]; 20 µM, 48 h, without cytokines",186 ± 19%
